Experiments:
[1] = tested on: A. baumannii 1674627 (MDR); test: MIC against resistant strains, Tables 5a-5d; type: cell-based; settings: Acinetobacter baumannii, n = 3
Protocol: (§1) Compounds described herein were evaluated for growth inhibition against a variety of bacterial species, including strains that have developed resistance to common antibacterial treatments, according to the procedure described herein, or by analogous procedures known to those skilled in the art. Resistant bacterial strains used for compound testing include methicillin-resistant S. aureus (MRSA), vancomycin resistant Enterococci (VRE) and various multi-drug resistant (MDR) strains commonly associated with hospital-acquired (nosocomial) infections, including, but not limited to A. baumannii, K. pnuemoniae, and E. cloacae.

[2] = tested on: A. baumannii CDC0290 (MDR); test: MIC against resistant strains, Tables 5a-5d; type: cell-based; settings: Acinetobacter baumannii, n = 3
Protocol: as §1

[3] = tested on: E. cloacae 1744299 (ESBL); test: MIC against resistant strains, Tables 5a-5d; type: cell-based; settings: Enterobacter cloacae, n = 3
Protocol: as §1

[4] = tested on: E. coli ATCC25922 (WT); test: MIC against resistant strains, Tables 5a-5d; type: cell-based; settings: Escherichia coli, n = 3
Protocol: as §1

[5] = tested on: E. faecium 1674620 (VRE); test: MIC against resistant strains, Tables 5a-5d; type: cell-based; settings: Enterococcus faecium, n = 3
Protocol: as §1

[6] = tested on: K. pneumoniae ATCC BAA-2473 (MDR); test: MIC against resistant strains, Tables 5a-5d; type: cell-based; settings: Klebsiella pneumoniae, ATCCBAA2473, n = 3
Protocol: as §1

[7] = tested on: K. pneumoniae CDC0010 (MDR); test: MIC against resistant strains, Tables 5a-5d; type: cell-based; settings: Klebsiella pneumoniae, n = 3
Protocol: as §1

[8] = tested on: P. aeruginosa 1674623 (MDR); test: MIC against resistant strains, Tables 5a-5d; type: cell-based; settings: Pseudomonas aeruginosa, n = 3
Protocol: as §1

[9] = tested on: P. aeruginosa CDC0248 (MDR); test: MIC against resistant strains, Tables 5a-5d; type: cell-based; settings: Pseudomonas aeruginosa, n = 3
Protocol: as §1

[10] = tested on: S. aureus ATCC 33591 (MRSA); test: MIC against resistant strains, Tables 5a-5d; type: cell-based; settings: Staphylococcus aureus, n = 3
Protocol: as §1

[11] = tested on: S. aureus ATCC BAA-1717 (MRSA); test: MIC against resistant strains, Tables 5a-5d; type: cell-based; settings: Staphylococcus aureus, n = 3
Protocol: as §1

[12] = Cytotoxicity, MTT assay; type: cell-based; settings: human, Hep G2 (ATCC HB-8065) cells; Hep G2; at the concentration given as IC50 bound; read-out: cell viability at the highest or lowest test concentration
Protocol: (§2) Before removing the frozen cell stocks from liquid nitrogen, culture medium was pre-warmed to 37° C. The frozen tube was then removed from liquid nitrogen and placed into a 37° C. water bath and shaken gently to thaw the cell stock as quickly as possible. A small portion of the pre-warmed culture medium was added to the cell solution. The cell suspension was then centrifuged at 1000 r/min for 3 minutes. The supernatant was discarded and the cells were resuspended in fresh culture medium.
(§3) NIH 3T3 (ATCC CRL-1658) and Hep G2 (ATCC HB-8065) cells were cultured with DMEM+10% FBS in 100 mm dishes. Cells were lifted for subculture or testing when confluence reached ˜60% by treating with 1× trypsin (incubated for 3 min at 37° C.). J774 (ATCC TIB-67) cells were cultured with DMEM+10% FBS in 100 mm dishes. Cells were lifted for subculture or testing when confluence reached ˜80% using a cell scraper. RAW264.7 (ATCC TIB-71) cells were cultured with DMEM+10% heat-inactivated FBS+1% pen/strep in T75 flasks. Cells were lifted for subculture or testing when confluence reached ˜80% using a cell scraper.
(§4) • 1. Cells were lifted and resuspended in culture medium. The number of cells in the cell suspension was determined using an auto-cell counter: 10 μL of the cell suspension was mixed with 10 μL 1× trypan blue (filtered with 0.2 μm PES filter) and the mixture was loaded onto a cell counting slide. Based on the concentration of viable cells, the cell suspension was further diluted to achieve the desired density. • 2. Cells were seeded in 96 well plates by adding 100 μL final cell suspension column-by-column using a multichannel pipette (5000 cells/well for NIH 3T3, 10000 cells/well for Hep G2, J774 and RAW264.7). The outer wells were block with PBS to reduce the effects of evaporation. One column was filled with only culture medium as a blank. Cells were incubated overnight before adding the test articles. • 3. Test articles were dissolved in 1×PBS (or DMSO) to obtain stocks solution. Stock solutions were pre-warmed before use. […] Serial dilutions (2-fold) of the 10× solutions were made in sterile culture tubes by diluting in 1×PBS (8 dilutions to yield 9 test concentrations). 900 μL of culture media was added to each tube to obtain final drug solution containing 10% PBS (or less than 1% DMSO) for each experimental group. • 4. The original culture medium was gently removed from the 96-well plates using a pipette. 100 μL of the test article solutions prepared in Step 3 were added to rows 2-7 of each column to obtain six replicates for each concentration. Plates were then incubated for 24 hours. • 5. MTT solutions were prepared by dissolving commercial MTT powder in 1×PBS to a concentration of 5 mg/mL. After passing through a 0.22 μm PES filter, the MTT solution was divided into 1 mL portions in sterile centrifuge tubes and stored at −20° C. • 6. MTT stock solutions were removed from the freezer to thaw at room temperature. Before adding MTT solutions, cell cultures were visually inspected and imaged using a microscope (to use as a comparison with MTT results). 10 μL of the 5 mg/mL MTT solution was added to each well and the plate was incubated for 4 hours. • 7. After 4 h incubation, the culture medium/MT solution was removed gently using a pipette. 100 μL of DMSO was added to each well using a multichannel pipette. The 96-well plates were analyzed in a plate reader using the following method: shake for 5 minutes, wait for 30 seconds, and measure absorbance at 570 nm. • 8. Data processing: The average of background Abg was calculated from the blank column. All other data was first treated by subtracting Abg. The average A. and standard deviation Se of each experimental group and the average Ac and standard deviation Sc for control group (with pure culture medium incubation) were then calculated. The cell viability was determined as Ae/Ac×100% and corresponding error as Se/Ae×100%. Significant outliers in any experimental or control group were removed. […]

[13] = tested on: Hep G2 (ATCC HB-8065) cells; test: Cytotoxicity, MTT assay; type: cell-based; settings: Homo sapiens, HepG2, 24 h, Hep G2; MTT, 24 hours incubation; read-out: IC50
Protocol: as §2, §3, §4

[14] = tested on: E. coli K12 (ATCC 47076); test: MIC broth microdilution method, Table 3; settings: Escherichia coli, ATCC47076
[15] = tested on: J774 (ATCC TIB-67) cells; test: Cytotoxicity, MTT assay; type: cell-based; settings: Mus musculus, MTT, 24 hours incubation, read-out: IC50
Protocol: as §2, §3, §4

[16] = tested on: NIH 3T3 (ATCC CRL-1658) cells; test: Cytotoxicity, MTT assay; type: cell-based; settings: Mus musculus, NIH3T3; NIH 3T3; MTT, 24 hours incubation; read-out: IC50
Protocol: as §2, §3, §4

[17] = tested on: K. aerogenes (ATCC 13048); test: MIC broth microdilution method, Table 3; settings: Klebsiella aerogenes, ATCC13048
[18] = tested on: S. epidermidis (ATCC 14990); test: MIC broth microdilution method, Table 3; settings: Staphylococcus epidermidis, ATCC14990
[19] = tested on: Hep G2 cells; test: Cytotoxicity tested by Eurofins Pharma Discovery Services; type: cell-based; settings: Homo sapiens, HepG2; Hep G2; data provided by Eurofins; read-out: IC50
[20] = tested on: primary human hepatocytes; test: as above; type: cell-based; settings: Hepatocyte, data provided by Eurofins, read-out: IC50
[21] = tested on: HRPTEpiC; test: as above; type: cell-based; settings: data provided by Eurofins, read-out: IC50

CCC[N+](C)(C)CCCCOc1cc(/C=C/c2ccc(/C=C/c3cc(OCCCC[N+](C)(C)CCC)cc(OCCCC[N+](C)(C)CCC)c3)cc2)cc(OCCCC[N+](C)(C)CCC)c1 [Formula Q]
MIC [1]: 64 µg/mL
MIC [2]: 64 µg/mL
MIC [3]: 4 µg/mL
MIC [4]: 4 µg/mL
MIC [5]: 1 µg/mL
MIC [6]: 8 µg/mL
MIC [7]: 32 µg/mL
MIC [8]: > 64 µg/mL
MIC [9]: > 64 µg/mL
MIC [10]: 1 µg/mL
MIC [11]: 1 µg/mL
viability at 24 h [12]: 91%
IC50 [13]: > 128 µg/mL
MIC [14]: 8 µg/mL

CCCCC[N+](C)(C)CCCCOc1cc(/C=C/c2ccc(/C=C/c3cc(OCCCC[N+](C)(C)CCCCC)cc(OCCCC[N+](C)(C)CCCCC)c3)cc2)cc(OCCCC[N+](C)(C)CCCCC)c1 [Formula S]
viability at 24 h [12]: 52%
IC50 [13]: > 128 µg/mL
IC50 [15]: 22.6 µg/mL
IC50 [16]: 42.3 µg/mL
MIC [17]: 8 µg/mL
MIC [18]: 2 µg/mL
MIC [14]: 4 µg/mL

C[N+](C)(C)CCCCCCOc1cc(/C=C/c2ccc(/C=C/c3ccc(/C=C/c4cc(OCCCCCC[N+](C)(C)C)cc(OCCCCCC[N+](C)(C)C)c4)cc3)cc2)cc(OCCCCCC[N+](C)(C)C)c1 [Formula TT]
viability at 24 h [12]: 70%
IC50 [13]: > 128 µg/mL
IC50 [16]: 69.3 µg/mL
IC50 [19]: 94.6 µg/mL
IC50 [20]: 102 µg/mL
IC50 [21]: 6.3 µg/mL
MIC [17]: > 128 µg/mL
MIC [18]: 4 µg/mL
MIC [14]: > 256 µg/mL

CCCCCC[N+](C)(C)CCCCOc1cc(/C=C/c2ccc(/C=C/c3cc(OCCCC[N+](C)(C)CCCCCC)cc(OCCCC[N+](C)(C)CCCCCC)c3)cc2)cc(OCCCC[N+](C)(C)CCCCCC)c1.[I-].[I-].[I-].[I-] [Formula T]
MIC [1]: 2 µg/mL
MIC [2]: 4 µg/mL
MIC [3]: 2 µg/mL
MIC [4]: 2 µg/mL
MIC [5]: 0.25 µg/mL
MIC [6]: 4 µg/mL
MIC [7]: 4 µg/mL
MIC [8]: 16 µg/mL
MIC [9]: 32 µg/mL
MIC [10]: 0.5 µg/mL
MIC [11]: 1 µg/mL
IC50 [13]: 15.3 µg/mL
IC50 [15]: 4.6 µg/mL
IC50 [16]: 12.4 µg/mL
IC50 [19]: 11.6 µg/mL
IC50 [20]: 31.8 µg/mL
IC50 [21]: 2.8 µg/mL
MIC [17]: 8 µg/mL
MIC [18]: 1 µg/mL
MIC [14]: 4 µg/mL

C[N+](C)(C)CCCCCCOc1cc(/C=C/c2ccc(/C=C/c3ccccc3)cc2)cc(OCCCCCC[N+](C)(C)C)c1OCCCCCC[N+](C)(C)C [Formula WW]
IC50 [13]: 45.4 µg/mL
IC50 [16]: 30.9 µg/mL
MIC [18]: 2 µg/mL
MIC [14]: 16 µg/mL
